Source: patent publication US5968526A, “T cell epitopes of the major allergens from Dermatophagoides (house dust mite)” (Immulogic Pharamaceutical Corporation, priority 1995, dated 1999)

Legend:
[1] = test system: T cell lines primed in vitro to Der f II; experiment: secondary proliferation of Der f II-primed T cell lines (Examples IX, X, XI); type: cell-based, human; conditions: for T cell reactivity: overlapping Der f II peptides, 10 positive experiments, FIG. 10; for T cell response: patient 384, recombinant Der f II primed, data not shown
Procedure: Experiments similar to those of Example V were performed to determine the T cell-reactive areas of the Der f II protein. For example, PBMC from house dust mite-allergic patient 384 were stimulated in vitro with purified recombinant Der f II and the T cell line was then challenged in the presence of x-irradiated (25,000 Rads) autologous Epstein-Barr virus transformed B cells as antigen presenting cells with various overlapping […]. The results of this proliferation assay indicate that T cells from this particular patient respond well to peptides DF II-1, DF II-2, DF II-3.1, DF II-4.5, DF II-15, DF II-16, and DF I-19.1 (data not shown).
The above procedure was followed with 10 patients, except in individual cases, T cell lines were primed by stimulating the patient PBMC with 20 μg/ml or 3 μg/ml purified native Der f II, and were assayed in the presence of x-irradiated (3500 Rads) autologous PBMC as antigen-presentingcells.
A study similar to that described in Example VII was carried out to determine the T cell cross-reactivity of the Der p II and Der f II proteins. T cells primed with the Der f II protein were challenged with various Der f II peptides and a set of substantially matching Der p II peptides. […]

[2] = test system: T cell lines primed in vitro to Der p II; experiment: secondary proliferation of Der p II-primed T cell lines (Examples VIII, X, XI); type: cell-based, human; conditions: Der p II primed; 26 positive experiments; FIG. 12
Procedure: Experiments similar to those of Example V were performed to determine the T cell-reactive areas of the Der p II protein. For example, PBMC from house dust mite-allergic patient 348 were isolated as described in Example V and were stimulated in vitro with 20 μg/ml purified native Der p II.
The above procedure was followed with a number of patients except in individual cases, T cell lines were primed with recombinant Der p II at 20 μg/ml or at 3 μg/ml and x-irradiated (3500 Rads) autologous PBMC were used as antigen-presenting cells. The data was analyzed as described in Example V, except the ranked sum of peptide responses was analyzed assigning a value of 3, 2 or 1 to the three highest S.I. responses.
A study similar to that described in Example VII was carried out to determine the T cell cross-reactivity of the Der p II and Der f II proteins. T cells primed with the Der f II protein were challenged with various Der f II peptides and a set of substantially matching Der p II peptides.
Another experiment following the procedure described in Example VIII analyzed the response of 29 patients primed in vitro to the Der p II protein and challenged with selected peptides derived from the Der p II sequence.

[3] = test system: T cell lines primed in vitro to Der p I; experiment: secondary proliferation of Der p I-primed T cell lines (Examples V, VII, XI); type: cell-based, human; conditions: overlapping Der p I peptides; 33 positive experiments
Summary of the method: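 PBMC were primed with native or recombinant Der p I (10 or 20 μg/ml) for 7 days, then expanded with IL-2 and IL-4. Resting T cells (2×10^4) were cultured 3 days with irradiated autologous EBV-B cells or PBMC and titrated protein or peptides, then pulsed 16 h with 1 μCi ³H-thymidine. S.I. was peak-response CPM over medium-only CPM, with S.I. ≥2.0 scored positive.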

[4] = test system: PBMC from mite-allergic patient; experiment: primary T cell (PBMC) proliferation, mite-allergic patient, tritiated thymidine; type: cell-based, human; conditions: medium 1071 ± 30
Procedure: Peripheral blood mononuclear cells (PBMC) were purified by Ficoll-Hypaque centrifugation of a peripheral blood specimen from mite-allergic patient and were assayed for proliferation in response to various antigens, i.e., affinity-purified Der p I, affinity purified Der p II, various Der p I and Der p II peptides. For assay, 5×10^4 PBMC were cultured in triplicate microwells for 7 days at 37° C. in the presence of various concentrations of antigen in 200 μl RPMI-1640 containing 5% human AB serum. Each well then received 1 μCi tritiated thymidine for 16 hours. The counts incorporated were collected onto glass fiber filters and processed for liquid scintillation counting. […] The CPM +/- standard deviation are shown. The stimulation index of each response (S.I.) is the ratio of the ^3 H-thymidine CPM incorporated by the cells in response to antigen divided by the ^3 H-thymidine CPM incorporated by cells in medium only. […] Thus, these peptides contain Der p I or Der p II T cell epitopes recognized by T cells from this particular allergic patient.

[5] = test system: T cell lines primed in vitro with Der p I; experiment: T cell proliferation with fine map and modified Group I peptides (Example XIV); type: cell-based, human; conditions: for T cell response, Group I peptides: FIGS. 31a-b
Procedure: Long term T cell lines were established by stimulation of 2×10^6 PBL/ml in bulk cultures of complete medium (RPMI-1640, 2 mM L-glutamine, 100 U/ml penicillin/streptomycin, 5×10^-5 M 2-mercaptoethanol, and 10 mM HEPES supplemented with 5% heat inactivated human AB serum) with 30 μg/ml of purified native Der p I or Der p II for 5-6 days at 37° C. in a humidified 5% CO2 incubator to select for house dust mite protein allergen reactive T cells. This amount of priming antigen was determined to be optimal for the activation of T cells from house dust mite allergic patients. Viable cells were purified by LSM centrifugation and cultured in complete medium supplemented with 5 units recombinant human IL-2/ml and 5 units recombinant human IL-4/ml for up to three weeks until the cells no longer responded to lymphokines and were considered "rested". The ability of the T cells to proliferate to selected peptides, purified Der p I or Der p II, or positive (PHA) controls or negative controls (medium only) was then assessed. For assay, 2×10^4 rested cells were restimulated in the presence of 2×10^4 autologous Epstein-Barr virus (EBV)-transformed B cells (prepared as described below) (gamma-irradiated with 25,000 RADS) or with 5×10^4 autologous PBMs (gamma-irradiated with 3500 RADS), with 2-50 μg/ml of purified native Der p I or Der p II in a volume of 200 μl complete medium in duplicate or triplicate wells in 96-well round bottom plates for 3 days. Each well then received 1 μCi tritiated thymidine for 16-20 hours. The counts incorporated were collected onto glass fiber filter mats and processed for liquid scintillation counting. […] The titrations were used to optimize the dose of peptides in T cell assays.
The maximum response in a titration of each peptide is expressed as the stimulation index (S.I.). The S.I. is the counts per minute (CPM) incorporated by cells in response to peptide, divided by the CPM incorporated by cells in medium only. […] The positive results were used in calculating mean stimulation indices for each peptide for the individual patient tested.
The above procedure was followed with 18 patients in the studies using peptides derived from Der p I and Der f I (FIGS. 31a-b), and 21 patients in the studies with Der p II peptides (FIGS. 32a-b). Individual patient results were used in calculating the mean S.I. for each peptide if the patient responded to the Der p I or Der p II protein at an S.I. of 2.0 or greater and the patient responded to at least one peptide derived from a house dust mite allergen at an S.I. f 2.0 or greater. A summary of positive experiments from the patients tested is shown in FIGS. 32a and 32b and FIGS. 33a and 33b. The bars represent the positivity index. […] In parenthesis above each bar are the mean stimulation indices for each peptide or protein for the group of patients tested.
Autologous EBV-transformed cell lines were γ-irradiated with 25,000 Rad and used as antigen presenting cells in secondary proliferation assays and secondary bulk stimulations. These EBV-transformed cell lines were made by incubating 5×10^6 PBL with 1 ml of B-59/8 Marmoset cell line (ATCC CRL1612, American Type Culture Collection, Rockville, Md.) conditioned medium in the presence of 1 μg/ml phorbol 12-myristate 13-acetate (PMA) at 37° C. for 60 minutes in 12×75 mm polypropylene round-bottom Falcon snap cap tubes (Becton Dickinson Labware, Lincoln Park, N.J.). These cells were then diluted to 1.25×10^6 cells/ml in RPMI-1640 as described above except supplemented with 10% heat-inactivated fetal bovine serum and cultured in 200 μl aliquots in flat bottom culture plates until visible colonies were detected. They were then transferred to larger wells until the cell lines were established.

[6] = test system: T cell lines primed in vitro to Der f I; experiment: secondary proliferation of Der f I-primed T cell lines (Examples VI, VII, XI); type: cell-based, human; conditions: Der f I primed; 8 positive experiments; FIG. 8
Procedure: Experiments similar to those of Example V were performed to determine. the T cell-reactive areas of the Der f I protein. For example, PBMC from house dust mite-allergic patient 783 were isolated as described in Example V and were stimulated in vitro-- with recombinant purified Der f I at 20 μg/ml. The results of the proliferation assay with Der f I peptides using x-irradiated (3500 Rads) autologous PBMC as antigen presenting cells indicate that T cells from this patient respond to the peptides DF I-8.1, DF I-9, DF I-6, DF I-10, DF I-2.1, DF I-3, DF I-11, DF I-5, DF I-1, and DF I-17 (data not shown).
The above procedure was followed in a number of patients except in individual cases, T cell lines were primed with affinity purified Der f I at 20 μg/ml or at 10 μg/ml and x-irradiated (25,000 Rads) autologous Epstein-Barr virus transformed B cells were used as antigen presenting cells. […]
Similarly, the procedure described in Example VI was followed with T cell lines from 9 patients primed in vitro to the Der f I protein then analyzed for response to selected peptides derived from the protein. The data was analyzed as described in Example VI. […]

human IgE = experiment: direct binding ELISA of IgE to mite allergen proteins and peptides; conditions: plasma of 19 mite-allergic patients and pool of 18; Example XV
Procedure: The coating antigens were removed and the wells are blocked with 0.5% gelatin in PBS, 300 μl/well for 2 hours at room temperature. Pooled human plasma (a mix of plasma samples from 20 patients that were skin test positive for commerical mite extract) was serially diluted with PBS-Tween 20 (PBS with 0.05% nonionic detergent Tween-20 Sigma, St. Louis, Mo.) and 100 μl/well a.backslash.was added and incubated overnight at 4° C. (plasma dilutions were tested in duplicate). The second antibody (biotinylated goat anti-Human IgE, 1:1000, Kirkegaard & Perry Laboratories Inc, Gaithersburg, Md.), was added at 100 μl/well for one hour at room temperature. This solution was removed and streptavidin-HRPO, 1:10000, (Southern Biotechnology Associates, Inc., Birmingham, Ala.) was then added at 100 μl/well for one hour at room temperature (all wells are washed three times with PBS-Tween between each incubation step). TMB Membrane Peroxidase Substrate system (Kirkegaard & Perry Laboratories) was freshly miced, and added at […]. The color was allowed to develop for 2-5 minutes. The reaction was stopped by the addition of […] of 1M phosphoric acid. Plates were read on a Microplate IL310 Autoreader (Biotech Instruments, Winooski, Vt.) with a 450 nm filter. The absorbance levels of duplicate wells were averaged. The order of coating antigens listed vertically in these figure legends corresponds in orDer from left to right to the coating antigens listed for each histogram.
The antigen preparation that was used as a positive control was a mixture of the four major biochemically purified mite allergens (term PMA for Purified Mite Allergen); Der f I, Der f II, Der p I and Der p II. The stock was generated at a concentration of 100 μgs of each protein per millimeter or 400 μgs total protein/ml. This preparation was used on each coated ELISA plate.

Substance	T cell reactivity [1]	T cell response [1]	T cell response to Der f II peptides [2]	further results
DF II-1: Der f II peptide (DQVDVKDCANNEIKKVMVDG)	significant areas of T cell reactivity	respond well	respond significantly	–
DF II-3.1: Der f II peptide (HRGKPFTLEALFDANQNTK)	–	respond well	–	–
DF II-4.5: Der f II peptide (TLEALFDANQNTKTAKIEIKASLDG)	significant areas of T cell reactivity	respond well	respond significantly	–
DF II-13.1: Der f II peptide (HGSDPCIIHRGKPFTLEALFDANQNTKTA)	significant areas of T cell reactivity	–	–	–
DF II-15: Der f II peptide (KIEIKASLDGLEIDVPGIDTNACHFMK)	significant areas of T cell reactivity	respond well	respond significantly	–
DF II-16: Der f II peptide (LEIDVPGIDTNACHFMKCPLVKGQQY)	–	respond well	–	–
DF II-17: Der f II peptide (CPLVKGQQYDAKYTWNVPKIAPKSENV)	significant areas of T cell reactivity	–	respond significantly	–
DP I-2: Der p I peptide (EIDLRQMRTVTPIRMQGGCGSCWAFSG)	–	–	–	T cell reactivity [3]: significant regions of T cell reactivity; CPM ± S.D. ([4]; 10 μg/ml): 1395 ± 47 CPM; CPM ± S.D. ([4]; 30 μg/ml): 1283 ± 34 CPM; CPM ± S.D. ([4]; 100 μg/ml): 1486 ± 38 CPM; T cell response, Group I peptides [5]: positive response
DP I-4: Der p I peptide (VAATESAYLAHRNQSLDLAEQ)	–	–	–	T cell reactivity [3]: significant regions of T cell reactivity; T cell response to Der p I peptides [6]: respond significantly; T cell response, Group I peptides [5]: positive response
DP I-23.35: modified Der p I peptide (DEKEGVVQESYYRYVAREQSCRRPNADKE)	–	–	–	IgE binding (ELISA), modified peptides (human IgE): No plasma samples contained IgE; positive T cell responses, modified peptides ([5]; 18 T cell lines, affinity purified Der p I primed, FIG. 31a): all eighteen T cell lines responded positively; T cell response, Group I peptides [5]: positive T cell studies
DP II-25.2: Der p II peptide (TVKVLGDDGVLASAIATHAKIRD)	–	–	–	ranked sum of peptide responses ([1]; FIG. 18b, preferred Der p II peptides): highest ranked sum
